According to US9936699B2, “Halogen-substituted compounds” (BAYER CROPSCIENCE AKTIENGESELLSCHAFT, priority 2014, dated 2018):

Key:
[1] = test system: mustard beetle larvae (Phaedon cochleariae); experiment: Phaedon cochleariae spray test (Chinese cabbage leaf disks); type: in vivo; conditions: foliar, 168 h, read-out: mortality in %
Description: Phaedon cochleariae—Spray Test
Solvent: 78.0 parts by weight of acetone
• 1.5 parts by weight of dimethylformamide Emulsifier: alkylarylpolyglycol ether
Chinese cabbage (Brassica pekinensis) leaf disks are sprayed with a preparation of the active ingredient of the desired concentration.

[2] = test system: green peach aphid (Myzus persicae); experiment: Myzus persicae spray test (Chinese cabbage leaf disks); type: in vivo; conditions: Myzus persicae, foliar, 144 h, read-out: mortality in %
Protocol: Myzus persicae—Spray Test
(§1) Solvent: 78.0 parts by weight acetone
(§2) • 1.5 parts by weight dimethylformamide Emulsifier: alkylarylpolyglycol ether
Chinese cabbage (Brassica pekinensis) leaf disks infected with all instars of the green peach aphid (Myzus persicae), are sprayed with a preparation of the active ingredient of the desired concentration.
(§3) After 6 days mortality in % is determined.

[3] = test system: fall armyworm larvae (Spodoptera frugiperda); experiment: Spodoptera frugiperda spray test (maize leaf sections); type: in vivo; conditions: Spodoptera frugiperda, 168 h, read-out: mortality in %
Description: Spodoptera frugiperda—Spray Test
as §1, §2
Maize (Zea mays) leaf sections are sprayed with a preparation of the active ingredient of the desired concentration. Once dry, the leaf sections are infested with fall armyworm larvae (Spodoptera frugiperda).

[4] = test system: cattle ticks (Boophilus microplus) strane Parhurst, SP-resistant; experiment: Boophilus microplus dip test (BOOPMI Dip); type: in vivo; conditions: 100 ppm, egg deposition after 7 days
Description: Boophilus microplus—Diptest (BOOPMI Dip)
Test animal: cattle ticks (Boophilus microplus) strane Parhurst, SP-resistant
(§4) Solvent: dimethyl sulfoxide
This compound solution is pipetted into tubes. 8-10 engorged, adult, female cattle ticks (Boophilus microplus) are placed in perforated tubes. These tubes are immersed in the aqueous compound solution until the ticks are completely moistened. After the liquid has drained off, the ticks are transferred to a filter paper in a plastic tray and stored in a climate chamber.
(§5) After 7 days egg deposition of fertile eggs is monitored. Eggs where fertility is not visible are stored in a climate chamber till hatching after about 42 days. An efficacy of 100% means all eggs are infertile; 0% means all eggs are fertile.

[5] = test system: two-spotted spider mite (Tetranychus urticae); experiment: Tetranychus urticae spray test; OP-resistant (bean plants); type: in vivo; conditions: Tetranychus urticae, 168 h, read-out: mortality in %
[6] = test system: adult engorged female ticks (Boophilus microplus); experiment: Boophilus microplus injection test (BOOPMI Inj); type: in vivo; conditions: 20 μg/animal, egg deposition after 7 days
Protocol: Boophilus microplus—Injectiontest (BOOPMI Inj)
as §4
Five adult engorged female ticks (Boophilus microplus) are injected with 1 μl compound solution into the abdomen. The ticks are transferred into replica plates and incubated in a climate chamber.
as §5

[7] = test system: larvae of the Australian sheep blowfly (Lucilia cuprina); experiment: Lucilia cuprina test (LUCICU); type: in vivo; conditions: Lucilia cuprina, 48 h, read-out: mortality in %
Protocol: Lucilia cuprina—Test (LUCICU)
as §4
10 mg active compound are dissolved in 0.5 ml Dimethylsulfoxid. Serial dilutions are made to obtain the desired rates.
Approximately 20 […] instar larvae of the Australian sheep blowfly (Lucilia cuprina) are transferred into a test tube containing minced horse meat and compound solution of the desired concentration.

[8] = test system: adult unfed cat fleas (Ctenocephalides felis); experiment: Ctenocephalides felis oral test (CTECFE); type: in vivo; conditions: 48 h, read-out: mortality in %
Protocol: Ctenocephalides felis—Oral Test (CTECFE)
as §4
Approximately 20 adult unfed cat fleas (Ctenocephalides felis) are placed in flea chambers. The blood chamber, sealed with parafilm on the bottom, are filled with cattle blood supplied with compound solution and placed on the gauze covered top of the flea chamber, so that the fleas are able to suck the blood. The blood chamber is heated to 37° C. whereas the flea chamber is kept at room temperature.

[9] = test system: Tick nymphs (Amblyomma hebraeum); experiment: Amblyomma hebraeum test (AMBYHE); type: in vivo; conditions: Amblyomma hebraeum, 1008 h, read-out: mortality in %
Protocol: Amblyomma hebraeum—Test (AMBYHE)
as §4
Tick nymphs (Amblyomma hebraeum) are placed in perforated plastic beakers and immersed in the aqueous compound solution for one minute. Ticks are transferred to a filter paper in a petridish and incubated in a climate chamber.

[10] = logP determination by HPLC on reversed-phase column (C18), EEC Directive 79/831 Annex V.A8; type: physicochemical; conditions: reversed-phase C18, acetonitrile/water with formic acid
[11] = test system: two spotted spidermite (Tetranychus urticae); experiment: Tetranychus urticae spray test OP-resistant (French bean leaf disks); type: in vivo; conditions: Tetranychus urticae, foliar, 144 h, read-out: mortality in %
Protocol: Tetranychus urticae—Spray Test OP-Resistant
as §1, §2
French bean (Phaseolus vulgaris) leaf disks which are heavily infested with all stages of the two spotted spidermite (Tetranychus urticae) are sprayed with a preparation of the active ingredient of the desired concentration.
as §3

[12] = test system: adult house flies (Musca domestica); experiment: Musca domestica test (MUSCDO); type: in vivo; conditions: Musca domestica, 48 h, read-out: mortality in %
Description: Musca domestica—Test (MUSCDO)
as §4
10 adult house flies (Musca domestica) are transferred into a container, containing a sponge soaked with a mixture of sugar solution and compound solution of the desired concentration.

[13] = test system: mustard beetle larvae (Phaedon cochleariae); experiment: Phaedon cochleariae spray test (cabbage leaves); conditions: in Brassica oleracea, 168 h, read-out: mortality in %

CSc1c(C(F)(F)C(F)(F)F)nn(C)c1-n1cc(-c2ccc(Cl)c(C(=O)NC3(C#N)CC3)c2)cn1 [Example I-02, 2-chloro-N-(1-cyanocyclopropyl)-5-[2′-methyl-4′-(methylsulfanyl)-5′-(pentafluoroethyl)-2′H-1,3′-bipyrazol-4-yl]benzamide]
mortality at 100 g/ha [1]: 100%
mortality at 100 g/ha [2]: 100%
mortality at 100 g/ha [3]: 100%
efficacy (infertile eggs) [4]: 100%
mortality at 4 ppm [5]: 100%
efficacy (infertile eggs) [6]: 100%
mortality at 100 ppm [7]: 100%
mortality at 100 ppm [8]: 100%
mortality at 100 ppm [9]: 100%
logP [10]: 3.56
chromatographic logP ([10]; reversed-phase C18 HPLC column): 3.58
mortality at 100 g/ha [11]: 100%
mortality at 100 ppm [12]: 90%
mortality at 4 ppm [13]: 100%
